ChEMBL document CHEMBL5356967, “Design, synthesis, evaluation and optimization of novel azole analogues as potent antifungal agents” (Bioorg Med Chem, 2024)
Values after ≈ are worked out from the molar mass of the structure shown.

Key:
Assay type in all cases: functional
[1] = system: Candida albicans; assay: Antifungal activity against Candida albicans SC5314 assessed as inhibition of fungal growth incubated for 24 hrs by broth microdilution method
[2] = system: Candida parapsilosis; assay: Antifungal activity against Candida parapsilosis 0306392 assessed as inhibition of fungal growth incubated for 24 hrs by broth microdilution method; conditions: Lodderomyces parapsilosis
[3] = system: Cryptococcus neoformans; assay: Antifungal activity against Cryptococcus neoformans ATCCBLS108 assessed as inhibition of fungal growth incubated for 72 hrs by broth microdilution method
[4] = system: Aspergillus fumigatus; assay: Antifungal activity against Aspergillus fumigatus 0504656 assessed as inhibition of fungal growth incubated for 48 hrs by broth microdilution method
[5] = system: Nannizzia gypsea; assay: Antifungal activity against Microsporum gypseum 0310388 assessed as inhibition of fungal growth incubated for 24 hrs by broth microdilution method
[6] = system: Trichophyton rubrum; assay: Antifungal activity against Trichophyton rubrum 0501124 assessed as inhibition of fungal growth incubated for 24 hrs by broth microdilution method
[7] = system: Candida tropicalis; assay: Antifungal activity against Candida tropicalis 0370354 assessed as inhibition of fungal growth incubated for 24 hrs by broth microdilution method
[8] = system: Candida albicans; assay: Antifungal activity against Candida albicans Y0109 assessed as inhibition of fungal growth incubated for 24 hrs by broth microdilution method
[9] = system: Candida albicans; assay: Potency index, ratio of Fluconazole MIC80 to test compound MIC80 for antifungal activity against Candida albicans Y0109 assessed as inhibition of fungal growth incubated for 24 hrs by broth microdilution method
[10] = system: Candida albicans; assay: Antifungal activity against fluconazole-resistant Candida albicans 904 assessed as inhibition of fungal growth incubated for 24 hrs by broth microdilution method
[11] = system: Candida albicans; assay: Potency index, ratio of Fluconazole MIC80 to test compound MIC80 for antifungal activity against Candida albicans SC5314 assessed as inhibition of fungal growth incubated for 24 hrs by broth microdilution method
[12] = system: Candida albicans; assay: Potency index, ratio of Ketoconazole MIC80 to test compound MIC80 for antifungal activity against Candida albicans SC5314 assessed as inhibition of fungal growth incubated for 24 hrs by broth microdilution method
[13] = system: Candida albicans; assay: Antifungal activity against fluconazole-resistant Candida albicans 901 assessed as inhibition of fungal growth incubated for 24 hrs by broth microdilution method
[14] = system: Candida albicans; assay: Potency index, ratio of Ketoconazole MIC80 to test compound MIC80 for antifungal activity against Candida albicans Y0109 assessed as inhibition of fungal growth incubated for 24 hrs by broth microdilution method

SMILES	MIC80 [1] [µg/mL]	MIC80 [2] [µg/mL]	MIC80 [3] [µg/mL]	MIC80 [4] [µg/mL]	MIC80 [5] [µg/mL]	MIC80 [6] [µg/mL]	MIC80 [7] [µg/mL]	MIC80 [8] [µg/mL]	Ratio [9]	MIC80 [10] [µg/mL]	Ratio [11]	Ratio [12]	MIC80 [13] [µg/mL]	Ratio [14]
Oc1ccc([C@@]2(Cn3ccnc3)OC[C@H](Cn3cc(CCN4CCCC4)nn3)O2)c(F)c1 (mixture of isomers)	0.063	0.125	0.063	16	0.5	0.25	0.25	0.063						
CCCN(CCC)CCc1cn(C[C@H]2CO[C@](Cn3ccnc3)(c3ccc(O)cc3F)O2)nn1 (mixture of isomers)	0.016	0.25	0.125	> 64	0.125	0.125	1	0.016	16	> 64	16	64	> 64	64
CC(=O)N1CCN(c2ccc(OC[C@@H]3CO[C@@](Cn4ccnc4)(c4ccc(Cl)cc4Cl)O3)cc2)CC1 [LEVOKETOCONAZOLE]	1 (≈ 1.88 µM)	2 (≈ 3.76 µM)	1 (≈ 1.88 µM)	> 64	16 (≈ 30.1 µM)	4 (≈ 7.53 µM)	32 (≈ 60.2 µM)	1 (≈ 1.88 µM)		> 64			> 64	
C[C@@H](c1ncncc1F)[C@](O)(Cn1cncn1)c1ccc(F)cc1F [VORICONAZOLE]	0.016 (≈ 0.0458 µM)	0.016 (≈ 0.0458 µM)	0.016 (≈ 0.0458 µM)	0.25 (≈ 0.716 µM)	0.063 (≈ 0.18 µM)	0.063 (≈ 0.18 µM)	0.063 (≈ 0.18 µM)	0.016 (≈ 0.0458 µM)						
Cc1cccc(-c2cn(C[C@H]3CO[C@](Cn4ccnc4)(c4ccc(O)cc4F)O3)nn2)c1 (mixture of isomers)	0.063	0.25	0.125	> 64	0.125	2	0.25	0.063						
CC(C)(C)c1ccc(-c2cn(C[C@H]3CO[C@](Cn4ccnc4)(c4ccc(O)cc4F)O3)nn2)cc1 (mixture of isomers)	0.063	0.125	0.063	> 64	0.25	0.25	0.125	0.063						
Oc1ccc([C@@]2(Cn3ccnc3)OC[C@H](Cn3cc(CCN4CCC(O)CC4)nn3)O2)c(F)c1 (mixture of isomers)	0.016	0.125	0.125	16	0.125	0.25	0.25	0.063						
N#CCc1ccc(-c2cn(C[C@H]3CO[C@](Cn4ccnc4)(c4ccc(O)cc4F)O3)nn2)cc1 (mixture of isomers)	0.125	0.125	0.125	16	0.125	0.25	1	0.063						
CNCCc1cn(C[C@H]2CO[C@](Cn3ccnc3)(c3ccc(O)cc3F)O2)nn1 (mixture of isomers)	0.125	0.25	0.125	> 64	0.25	1	0.25	0.063						
Oc1ccc([C@@]2(Cn3ccnc3)OC[C@H](Cn3cc(COc4ccccc4)nn3)O2)c(F)c1 (mixture of isomers)	0.063	0.125	0.063	16	0.25	1	0.125	0.063						
COc1ccc(-c2cn(C[C@H]3CO[C@](Cn4ccnc4)(c4ccc(O)cc4F)O3)nn2)cc1 (mixture of isomers)	0.063	0.125	0.063	> 64	0.25	0.5	0.25	0.063						
Oc1ccc([C@@]2(Cn3ccnc3)OC[C@H](Cn3cc(-c4ccccc4)nn3)O2)c(F)c1 (mixture of isomers)	0.125	0.125	0.125	> 64	0.125	0.25	0.5	0.063						
